From patent US20020183377A1 (priority 1999, published 2002)
“And” between values parts separate entries of the source, which are not always exact repeats. Identical values can stand only once. Each block holds one molecule with its values, some of them ahead of it.

Columns and labels:
[1] = test system: female patients having diffuse or androgenetic, non-epulotic alopecia; experiment: Patient questionnaire (success of therapy, side effects); format: in vivo, human
Description: Undesirable pharmaceutical side effects were determined by means of a patient questionnaire. At the end of the study, an additional termination questionnaire was filled in by the patients, in which they could express their views on the success of the therapy, on the chronological occurrence of side effects and on the administration form of the preparation.

[2] = test system: female patients having diffuse or androgenetic, non-epulotic alopecia; experiment: Hair shaft measurements (diameter, breaking force, breaking distance) in the same study; format: in vivo, human; details: for power of resistance of hair: frontal hair
Source text: The treatment period was 6 months. […] From the hair samples obtained for the trichogram, frontally and occipitally at least 10 hairs in each case were used for the hair shaft measurements. These samples were investigated before the beginning of the preparation application and after 3 and 6 months' treatment. For the measurement of the diameter and of the mechanical properties of the hair, 5 hairs from the frontal and occipital taking region of the trichograms were in each case used. For the measurement of the force which had to be used in order to break the hair, the hairs were first stretched, by means of a computer-controlled measuring and control unit at a constant force (Newton), to breaking point. In a manner analagous to the determination of the breaking force, it was possible to determine the stretching distance up to the breaking point by means of the measuring unit. The stretching distance was measured in mm.

[3] = Toxicity and side effects of melatonin in humans (oral, topical); format: in vivo, human; details: topical application in a nanocolloid preparation and alcoholic solutions, over 60 subjects
Source text: Although the mechanisms of the action of melatonin are still not comprehensively clarified in detail, melatonin appears to control the adaptation of the organism to environmental stimuli, in particular light and temperature.

[4] = test system: hair follicles of the cashmere goat; details: cited from earlier work
[5] = test system: female patients having diffuse or androgenetic, non-epulotic alopecia; experiment: Trichograms (anagenic, telogenic, dystrophic hair rates) in randomized placebo-controlled double-blind study; format: in vivo, human; details: for telogenic rate, frontal trichogram / anagenic rate, frontal trichogram / anagenic rate, occipital trichogram / telogenic rate, occipital trichogram: all patients
Description: The trial was carried out as a randomized, placebo-controlled double-blind study on 40 female patients having diffuse or androgenetic, non-epulotic alopecia, who, after clarification, declared themselves willing to participate in the investigation. […] The treatment period was 6 months. […] 40 women of 20 to 70 years of age with healthy skin and good general health and having androgenetic or diffuse alopecia were tested. Care was taken that none of the women were pregnant or lactating, there was no dermatological local therapy on the scalp and no epulotic alopecia was present. Furthermore, no hair-cosmetic measures were carried out during the study. […] For the investigation of the […] telogenic rates, trichograms were prepared. In this procedure, 5 days in each case after the last hair wash 30 to 50 hairs were obtained frontally approximately 2 cm from the forehead/hair boundary and laterally from the sagittal line in a standardized manner by epilation using a special […]. A 2nd epilation was taken occipitally 2 cm laterally of the protuberantia occipitalis. The trichograms were carried out before the beginning of the study, and after 3 and 6 months' treatment. The hair roots obtained were mounted on slides, analogously counted by means of a light microscope at 20-times magnification and the percentage ratios of the […], telogenic and dystrophic hairs were calculated. All the individual data from the trichogram investigations, the hair shaft measurements and the melatonin measurements were recorded in Microsoft Excel and mean values and standard deviations were calculated. The statistical analysis of the measured values at the various points in time in the two treatment groups was carried out by the SPSS statistics program.

[6] = test system: hair follicle of goats; details: goats treated over 14 days, vs untreated goats; cited from earlier work
[7] = test system: postmenopausal women; details: unpublished data; cited from earlier work
[8] = test system: alopecia in men; details: cited from earlier work
[9] = drug group, end of 6-month study
[10] = drug group, under topical treatment
[11] = patients treated with melatonin
[12] = drug group n=14, starting value

accumulation in the melatonin serum level (6 months' topical treatment): did not occur
melatonin plasma level versus physiological night level (not exceeded) [10]: ≤ 250 pg/ml
melatonin plasma level, individual peak values [10]: 180 pg/mL
harmful actions of the preparation on the physiological hair root (dystrophic hair rate) ([5]; dystrophic hair always in the normal range): no harmful actions
SMILES: COc1ccc2[nH]cc(CCNC(C)=O)c2c1 [melatonin, N-acetyl-5-methoxytryptamine]
patients in whom the hair loss had stopped [1, 9]: 23%
patients in whom the hair loss had worsened [1, 9]: 8%
patients stating that the hair loss had improved [1, 9]: 69%
occurrence of tiredness compared with the placebo group ([1]; topical application to the scalp, 6 months): no increased occurrence of tiredness
patients with enlargement of the hair diameter, hair taken frontally ([2]; drug group, diagnosis androgenetic alopecia): 67%
power of resistance of hair ([2]; after 6 months' melatonin treatment): 0.61 N
power of resistance of hair ([2]; melatonin treatment, before treatment): 0.56 N
patients with improvements of occipital hair parameters, group having diffuse alopecia ([2]; occipital hair, diffuse alopecia, melatonin): 86%
patients with enlargement of the hair diameter, hair taken occipitally [2, 11]: 55%
patients with increase in the stretching force, hair taken occipitally [2, 11]: 70%
local or systemic side effects [3]: no local or systemic side effects
melatonin concentration giving greater growth of the hair shafts than lower dose and control ([4]; 24 hour interval): ≥ 150 mg/mL
melatonin concentration with best growth rates and maximal total growth ([4]; after 120 hours): 300 ng/L
anagenic rate, occipital trichogram, androgenetic alopecia ([5]; drug group n=6, after treatment): 87.8%
telogenic rate, occipital trichogram, androgenetic alopecia ([5]; drug group n=6, month 3): 18.3%
telogenic rate, occipital trichogram, androgenetic alopecia ([5]; drug group n=6, month 6, p≦0.035 vs starting result): 10.8%
anagenic rate, occipital trichogram, androgenetic alopecia ([5]; drug group n=6, starting value): 73.6%
telogenic rate, occipital trichogram, androgenetic alopecia ([5]; drug group n=6, starting value): 26.5%
telogenic rate, occipital trichogram, diffuse alopecia ([5]; drug group n=14, after treatment): 13.2%
anagenic rate, occipital trichogram, diffuse alopecia ([5]; drug group n=14, after treatment, p=0,02 vs placebo for increase): 83.7%
anagenic rate, occipital trichogram, diffuse alopecia [5, 12]: 77.4%
telogenic rate, occipital trichogram, diffuse alopecia [5, 12]: 21.6%
telogenic rate, frontal trichogram ([5]; drug group, after 3 months): 16.8%
telogenic rate, frontal trichogram ([5]; drug group, after 6 months): 15.9%
anagenic rate, frontal trichogram ([5]; drug group, after treatment with 0.1% melatonin spray (time not given; 6-month study)): 82.6%
anagenic rate, occipital trichogram ([5]; drug group, month 3): 78.8%
telogenic rate, occipital trichogram ([5]; drug group, month 3): 18.1%
anagenic rate, occipital trichogram ([5]; drug group, month 6, p≦0.021 vs starting result): 85%
telogenic rate, occipital trichogram ([5]; drug group, month 6, p≦0.048 vs month 3, p≦0.005 over 6 months): 12.5%
anagenic rate, occipital trichogram ([5]; drug group, starting value): 76.3%
telogenic rate, frontal trichogram ([5]; drug group, starting value): 18.9%
telogenic rate, occipital trichogram ([5]; drug group, starting value (month 1)): 23.03% and 23%
anagenic rate, frontal trichogram ([5]; drug group, starting value before therapy): 80.4%
differences in frontal anagenic and telogenic rates after 3 and 6 months compared with starting values ([5]; drug group, frontal): not significant
effect on hair follicles (histology of skin biopsies) [6]: induction of hair growth by changeover of the hair follicle from the telogenic phase to the proanagenic phase

SMILES: CC(C)(C)NC(=O)[C@H]1CC[C@H]2[C@@H]3CC[C@H]4NC(=O)C=C[C@]4(C)[C@H]3CC[C@]12C [finasteride]
efficacy compared with placebo [7]: did not show any superior efficacy compared with placebo
cases with slight to marked improvement in the hair density [8]: 66%
cases with stopping of the hair loss [8]: 80%
